According to PubChem BioAssay (NCI):
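Method: 48-hour compound exposure of cells in 96-well plates, five concentrations, linear interpolation of endpoints. TGI: concentration producing complete growth inhibition.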

Experiments:
Experiment in all cases: NCI tumour cell line growth inhibition, 48 h
786-0 renal = system: 786-0 renal
A549 NSCLC = system: A549 NSCLC
ACHN renal = system: ACHN renal
CAKI-1 renal = system: CAKI-1 renal
CCRF-CEM leukemia = system: CCRF-CEM leukemia
COLO 205 colon = system: COLO 205 colon
DLD-1 colon = system: DLD-1 colon
DMS 114 small cell lung = system: DMS 114 small cell lung
DMS 273 small cell lung = system: DMS 273 small cell lung
EKVX NSCLC = system: EKVX NSCLC
HCC-2998 colon = system: HCC-2998 colon
HCT-116 colon = system: HCT-116 colon
HCT-15 colon = system: HCT-15 colon
HL-60(TB) leukemia = system: HL-60(TB) leukemia
HOP-18 NSCLC = system: HOP-18 NSCLC
HOP-62 NSCLC = system: HOP-62 NSCLC
HOP-92 NSCLC = system: HOP-92 NSCLC
HT29 colon = system: HT29 colon
K-562 leukemia = system: K-562 leukemia
KM12 colon = system: KM12 colon
KM20L2 colon = system: KM20L2 colon
LOX IMVI melanoma = system: LOX IMVI melanoma
LXFL 529 NSCLC = system: LXFL 529 NSCLC
M14 melanoma = system: M14 melanoma
M19-MEL melanoma = system: M19-MEL melanoma
MALME-3M melanoma = system: MALME-3M melanoma
MOLT-4 leukemia = system: MOLT-4 leukemia
NCI-H226 lung = system: NCI-H226 lung
NCI-H23 lung = system: NCI-H23 lung
NCI-H460 lung = system: NCI-H460 lung
NCI-H522 lung = system: NCI-H522 lung
OVCAR-3 ovarian = system: OVCAR-3 ovarian
OVCAR-4 ovarian = system: OVCAR-4 ovarian
OVCAR-5 ovarian = system: OVCAR-5 ovarian
OVCAR-8 ovarian = system: OVCAR-8 ovarian
RPMI-8226 leukemia = system: RPMI-8226 leukemia
RXF 393 renal = system: RXF 393 renal
RXF-631 renal = system: RXF-631 renal
SF-268 CNS = system: SF-268 CNS
SF-295 CNS = system: SF-295 CNS
SF-539 CNS = system: SF-539 CNS
SK-MEL-2 melanoma = system: SK-MEL-2 melanoma
SK-MEL-28 melanoma = system: SK-MEL-28 melanoma
SK-MEL-5 melanoma = system: SK-MEL-5 melanoma
SK-OV-3 ovarian = system: SK-OV-3 ovarian
SN12C renal = system: SN12C renal
SNB-19 CNS = system: SNB-19 CNS
SNB-75 CNS = system: SNB-75 CNS
SNB-78 CNS = system: SNB-78 CNS
SR leukemia = system: SR leukemia
SW-620 colon = system: SW-620 colon
TK-10 renal = system: TK-10 renal
U251 CNS = system: U251 CNS
UACC-257 melanoma = system: UACC-257 melanoma
UACC-62 melanoma = system: UACC-62 melanoma
UO-31 renal = system: UO-31 renal
XF 498 CNS = system: XF 498 CNS
A498 renal = system: A498 renal
IGROV1 ovarian = system: IGROV1 ovarian
MCF7 breast = system: MCF7 breast
NCI/ADR-RES ovarian = system: NCI/ADR-RES ovarian
P388 leukemia = system: P388 leukemia
P388/ADR leukemia = system: P388/ADR leukemia
SN12K1 renal = system: SN12K1 renal

CCOC(=O)/C(=C\c1ccc[nH]1)C(=O)c1ccccc1
TGI (786-0 renal): > 100 µM | TGI (A549 NSCLC): > 100 µM | TGI (ACHN renal): > 100 µM | TGI (CAKI-1 renal): > 100 µM | TGI (CCRF-CEM leukemia): > 100 µM | TGI (COLO 205 colon): > 100 µM | TGI (DLD-1 colon): > 100 µM | TGI (DMS 114 small cell lung): > 100 µM | TGI (DMS 273 small cell lung): > 100 µM | TGI (EKVX NSCLC): > 100 µM | TGI (HCC-2998 colon): > 100 µM | TGI (HCT-116 colon): > 100 µM | TGI (HCT-15 colon): > 100 µM | TGI (HL-60(TB) leukemia): > 100 µM | TGI (HOP-18 NSCLC): > 100 µM | TGI (HOP-62 NSCLC): > 100 µM | TGI (HOP-92 NSCLC): > 100 µM | TGI (HT29 colon): > 100 µM | TGI (K-562 leukemia): > 100 µM | TGI (KM12 colon): > 100 µM | TGI (KM20L2 colon): > 100 µM | TGI (LOX IMVI melanoma): > 100 µM | TGI (LXFL 529 NSCLC): > 100 µM | TGI (M14 melanoma): > 100 µM | TGI (M19-MEL melanoma): > 100 µM | TGI (MALME-3M melanoma): > 100 µM | TGI (MOLT-4 leukemia): > 100 µM | TGI (NCI-H226 lung): > 100 µM | TGI (NCI-H23 lung): > 100 µM | TGI (NCI-H460 lung): > 100 µM | TGI (NCI-H522 lung): > 100 µM | TGI (OVCAR-3 ovarian): > 100 µM | TGI (OVCAR-4 ovarian): > 100 µM | TGI (OVCAR-5 ovarian): > 100 µM | TGI (OVCAR-8 ovarian): > 100 µM | TGI (RPMI-8226 leukemia): > 100 µM | TGI (RXF 393 renal): > 100 µM | TGI (RXF-631 renal): > 100 µM | TGI (SF-268 CNS): > 100 µM | TGI (SF-295 CNS): > 100 µM | TGI (SF-539 CNS): > 100 µM | TGI (SK-MEL-2 melanoma): > 100 µM | TGI (SK-MEL-28 melanoma): > 100 µM | TGI (SK-MEL-5 melanoma): > 100 µM | TGI (SK-OV-3 ovarian): > 100 µM | TGI (SN12C renal): > 100 µM | TGI (SNB-19 CNS): > 100 µM | TGI (SNB-75 CNS): > 100 µM | TGI (SNB-78 CNS): > 100 µM | TGI (SR leukemia): > 100 µM | TGI (SW-620 colon): > 100 µM | TGI (TK-10 renal): > 100 µM | TGI (U251 CNS): > 100 µM | TGI (UACC-257 melanoma): > 100 µM | TGI (UACC-62 melanoma): > 100 µM | TGI (UO-31 renal): > 100 µM | TGI (XF 498 CNS): > 100 µM

C=C1C(=O)O[C@@H]2[C@H](O)[C@@H](C)[C@@H]3C=CC(=O)[C@@]3(C)[C@H](OC(=O)C=C(C)C)[C@H]12
TGI (A498 renal): 4.65 µM | TGI (A549 NSCLC): 10 µM | TGI (CAKI-1 renal): 1.74 µM | TGI (CCRF-CEM leukemia): 0.461 µM | TGI (COLO 205 colon): 1.67 µM | TGI (DLD-1 colon): 0.878 µM | TGI (DMS 114 small cell lung): 6.57 µM | TGI (DMS 273 small cell lung): 3.24 µM | TGI (EKVX NSCLC): 5.5 µM | TGI (HCC-2998 colon): 3.23 µM | TGI (HCT-116 colon): 1.72 µM | TGI (HCT-15 colon): 0.667 µM | TGI (HL-60(TB) leukemia): 0.412 µM | TGI (HOP-18 NSCLC): 3.09 µM | TGI (HOP-62 NSCLC): 11.4 µM | TGI (HOP-92 NSCLC): 2.21 µM | TGI (HT29 colon): 3.82 µM | TGI (IGROV1 ovarian): 4.48 µM | TGI (K-562 leukemia): 0.518 µM | TGI (KM12 colon): 3.78 µM | TGI (KM20L2 colon): 5.12 µM | TGI (LOX IMVI melanoma): 2.25 µM | TGI (M19-MEL melanoma): 2.7 µM | TGI (MALME-3M melanoma): 1.25 µM | TGI (MCF7 breast): 1.81 µM | TGI (MOLT-4 leukemia): 0.725 µM | TGI (NCI-H226 lung): 4.17 µM | TGI (NCI-H23 lung): 2.88 µM | TGI (NCI-H460 lung): 6.02 µM | TGI (NCI-H522 lung): 0.4 µM | TGI (NCI/ADR-RES ovarian): 6.42 µM | TGI (OVCAR-3 ovarian): 2.15 µM | TGI (OVCAR-4 ovarian): 4.92 µM | TGI (OVCAR-5 ovarian): 4.67 µM | TGI (OVCAR-8 ovarian): 8.53 µM | TGI (P388 leukemia): 0.483 µM | TGI (P388/ADR leukemia): 0.272 µM | TGI (RPMI-8226 leukemia): 0.975 µM | TGI (RXF 393 renal): 1.33 µM | TGI (SF-268 CNS): 3.59 µM | TGI (SF-295 CNS): 7.27 µM | TGI (SF-539 CNS): 0.596 µM | TGI (SK-MEL-2 melanoma): 2.84 µM | TGI (SK-MEL-28 melanoma): 1.81 µM | TGI (SK-MEL-5 melanoma): 3.78 µM | TGI (SK-OV-3 ovarian): 7.91 µM | TGI (SN12C renal): 2.27 µM | TGI (SN12K1 renal): 1.75 µM | TGI (SNB-19 CNS): 17.2 µM | TGI (SNB-75 CNS): 7.86 µM | TGI (SW-620 colon): 1.18 µM | TGI (U251 CNS): 3.5 µM | TGI (UACC-257 melanoma): 4.74 µM | TGI (UACC-62 melanoma): 1.87 µM | TGI (UO-31 renal): 7.23 µM | TGI (XF 498 CNS): 2.63 µM
